Results as given in patent US20220331303A1, “USE OF AN OREXIN 2 RECEPTOR AGONIST FOR THE TREATMENT OF EXCESSIVE SLEEPINESS” (Takeda Pharmaceutical Company Limited, priority 2019, published 2022).

Tested on: sleep-deprived healthy volunteers
Experiment: Polysomnography (PSG) of recovery sleep after sleep deprivation in healthy volunteers
Type: in vivo, human
Description: Exploratory objectives in sleep-deprived healthy volunteers were as follows: • 1. To compare the effects of Compound A (LD and HD) and modafinil (300 mg) on promoting wakefulness as measured by MWT. • 2. To determine PK-PD relationships for selected PD measures. • 3. To evaluate PK-BP relationships in BP change after Compound A administration. • 4. To compare various polysomnography (PSG) parameters between Day −1 (predose) and Day 2 (recovery sleep). • 5. To determine whether there is any difference in the PSG parameters on Day 2 (recovery sleep) between Compound A and placebo or modafinil. • 6. To evaluate the continuous electroencephalogram (EEG) obtained during the MWTs for power spectra changes for Compound A (LD and HD) versus placebo, Compound A (LD and HD) versus modafinil, and modafinil versus placebo.
During the day before dosing on Day 1, participants were administered the KSS at scheduled timepoints. A practice MWT session was performed on Day 1 treatment period 1 (only once during the entire study) to familiarize subjects with the procedures. Study drug was administered in the clinic in the evening on Day 1 of each treatment period. Subjects underwent the MWT and KSS at specified timepoints after the start of the infusion. Subjects were required to stay awake between the MWT tests. Following completion of the IV infusion on Day 2, subjects underwent an additional MWT test. When the final MWT test and cognitive testing were completed, subjects were allowed to sleep (recovery sleep) for approximately 6 hours. PSG recording was collected during this time. Subjects were discharged from the unit after completion on Day 2 with continuing actigraphy upon discharge (to begin on Day −6 before the next treatment period). The interval between each subsequent treatment period was at least 7 days to ensure that the subject's circadian rhythm had returned to a normal cycle. Subject's vital signs, including BP, were monitored during the dosing and testing period. Blood samples for determination of Compound A plasma concentrations were collected at specified timepoints on Days 1 and 2 of each treatment period. Subjects completed the Columbia-Suicide Severity Rating Scale (C-SSRS) during screening, before study drug administration, and before discharge on Day 2 of each treatment period.
The PSGs assess recovery sleep during the day after the end of the sleep deprivation period. There were no corrections for multiple comparisons. […]

[1] = HD: Compound A 112 mg, recovery sleep
[2] = LD: Compound A 44 mg, recovery sleep

Structure (SMILES): COC(=O)N1CCC[C@H](NS(C)(=O)=O)[C@@H]1CO[C@H]1CC[C@@H](c2ccccc2)CC1 [Compound A, methyl (2R,3S)-3-((methylsulfonyl)amino)-2-(((cis-4-phenylcyclohexyl)oxy)methyl)piperidine-1-carboxylate]
- PSG Stage N3 % LS Mean [1]: 29.36%
- PSG Stage N3 % LS Mean Difference vs Placebo Estimate [1]: 3.53%
- Stage N3 Duration LS Mean (LD: Compound A 44 mg): 81.05 min
- Stage N3 Duration LS Mean Difference vs placebo Estimate (LD: Compound A 44 mg): -0.34 min
- Stage REM % LS Mean (LD: Compound A 44 mg): 20.70%
- Stage REM % LS Mean Difference vs placebo Estimate (LD: Compound A 44 mg): −0.68%
- Stage REM Duration LS Mean (LD: Compound A 44 mg): 60.76 min
- Stage REM Duration LS Mean Difference vs placebo Estimate (LD: Compound A 44 mg): -5.80 min
- Stage Wake % LS Mean (LD: Compound A 44 mg): 10.65%
- Stage Wake % LS Mean Difference vs placebo Estimate (LD: Compound A 44 mg): 0.35%
- Stage Wake Duration LS Mean (LD: Compound A 44 mg): 35.55 min
- Stage Wake Duration LS Mean Difference vs placebo Estimate (LD: Compound A 44 mg): 0.02 min
- Total Arousal Index LS Mean (LD: Compound A 44 mg): 10.07
- Total Arousal Index LS Mean Difference vs placebo Estimate (LD: Compound A 44 mg): 0.08
- Total Arousal LS Mean (LD: Compound A 44 mg): 47.56
- Total Arousal LS Mean Difference vs placebo Estimate (LD: Compound A 44 mg): −2.85
- Total Leg Movements LS Mean (LD: Compound A 44 mg): 12.59
- Total Leg Movements LS Mean Difference vs placebo Estimate (LD: Compound A 44 mg): −6.35
- Total Leg Movements N1 LS Mean (LD: Compound A 44 mg): 1.60
- Total Leg Movements N1 LS Mean Difference vs placebo Estimate (LD: Compound A 44 mg): 0.34
- Total Leg Movements N2 LS Mean (LD: Compound A 44 mg): 6.04
- Total Leg Movements N2 LS Mean Difference vs placebo Estimate (LD: Compound A 44 mg): −2.51
- Total Leg Movements N3 LS Mean (LD: Compound A 44 mg): 0.65
- Total Leg Movements N3 LS Mean Difference vs placebo Estimate (LD: Compound A 44 mg): −0.97
- Total Leg Movements REM LS Mean (LD: Compound A 44 mg): 3.44
- Total Leg Movements REM LS Mean Difference vs placebo Estimate (LD: Compound A 44 mg): −2.31
- Total Leg Movements with Awakening LS Mean (LD: Compound A 44 mg): 0.68
- Total Leg Movements with Awakening LS Mean Difference vs placebo Estimate (LD: Compound A 44 mg): −1.07
- Total Leg Movements with Microarous LS Mean (LD: Compound A 44 mg): 2.35
- Total Leg Movements with Microarous LS Mean Difference vs placebo Estimate (LD: Compound A 44 mg): 0.34
- Total Leg Movements with Resp Event LS Mean (LD: Compound A 44 mg): 0.16
- Total Leg Movements with Resp Event LS Mean Difference vs placebo Estimate (LD: Compound A 44 mg): 0.11
- Total Leg Movements without Arousal LS Mean (LD: Compound A 44 mg): 10.21
- Total Leg Movements without Arousal LS Mean Difference vs placebo Estimate (LD: Compound A 44 mg): −6.71
- Total Recording Time LS Mean (LD: Compound A 44 mg): 342.50 min
- Total Recording Time LS Mean Difference vs placebo Estimate (LD: Compound A 44 mg): -14.40 min
- Total Sleep Time LS Mean (LD: Compound A 44 mg): 291.34 min
- Total Sleep Time LS Mean Difference vs Placebo Estimate (LD: Compound A 44 mg): -18.13 min
- Wake After Persistent Sleep LS Mean (LD: Compound A 44 mg): 33.78 min
- Wake After Persistent Sleep LS Mean Difference vs placebo Estimate (LD: Compound A 44 mg): -0.85 min
- Wake After Sleep Onset LS Mean (LD: Compound A 44 mg): 35.55 min
- Wake After Sleep Onset LS Mean Difference vs placebo Estimate (LD: Compound A 44 mg): 0.02 min
- PSG Awakenings LS Mean [2]: 4.74
- PSG Awakenings LS Mean Difference vs Placebo Estimate [2]: 0.25
- PSG N1 Latency LS Mean [2]: 3.60 min
- PSG N1 Latency LS Mean Difference vs Placebo Estimate [2]: -1.76 min
- PSG N2 Latency LS Mean [2]: 3.91 min
- PSG N2 Latency LS Mean Difference vs Placebo Estimate [2]: -2.74 min
- PSG N3 Latency LS Mean [2]: 21.94 min
- PSG N3 Latency LS Mean Difference vs Placebo Estimate [2]: -5.33 min
- PSG Per. Slp LS Mean [2]: 5.96 min
- PSG Per. Slp LS Mean Difference vs Placebo Estimate [2]: -0.91 min
- PSG REM Latency LS Mean [2]: 75.10 min
- PSG REM Latency LS Mean Difference vs Placebo Estimate [2]: 20.16 min
- PSG Sleep Efficiency LS Mean [2]: 84.95%
- PSG Sleep Efficiency LS Mean Difference vs Placebo Estimate [2]: −1.77%
- PSG Sleep Onset LS Mean [2]: 2.71 min
- PSG Sleep Onset LS Mean Difference vs Placebo Estimate [2]: -1.28 min
- PSG Spontaneous Arousal Index LS Mean [2]: 8.58
- PSG Spontaneous Arousal Index LS Mean Difference vs Placebo Estimate [2]: −0.36
- PSG Spontaneous Arousal LS Mean [2]: 40.21
- PSG Spontaneous Arousal LS Mean Difference vs Placebo Estimate [2]: −4.86
- PSG Stage N1 % LS Mean [2]: 5.69%
- PSG Stage N1 % LS Mean Difference vs Placebo Estimate [2]: −0.39%
- PSG Stage N1 Duration LS Mean [2]: 16.29 min
- PSG Stage N1 Duration LS Mean Difference vs Placebo Estimate [2]: -2.12 min
- PSG Stage N2 % LS Mean [2]: 46.04%
- PSG Stage N2 % LS Mean Difference vs Placebo Estimate [2]: −0.66%
- PSG Stage N2 Duration LS Mean [2]: 134.21 min
- PSG Stage N2 Duration LS Mean Difference vs Placebo Estimate [2]: -9.86 min
- PSG Stage N3 % LS Mean [2]: 27.65%
- PSG Stage N3 % LS Mean Difference vs Placebo Estimate [2]: 1.82%
- PSG sleep efficiency, arousals, and total sleep compared with placebo (both Compound A groups (44 and 112 mg), recovery sleep): not different from placebo
